Assay results as given in a melting point compilation (Tetko et al.).

**Q.** With Cn1nc(C=O)cc1-c1cccs1 as the compound, how does the melting point read?
**A.** Its melting point is 76 to 78 °C.

**Q.** For CS(=O)(=O)N1CCC(C(=O)O)CC1, which melting point is on record?
**A.** The melting point was 159 to 161 °C.

**Q.** With CC(=O)c1ccc(N(C)C)cc1 as the compound, how does the melting point read?
**A.** The melting point was 105 to 107 °C.

**Q.** Which melting point does the source give for O=C(O)Cc1ccc(S(=O)(=O)N2CCCC2)s1 here?
**A.** Its melting point is 262 to 264 °C.

**Q.** For Cc1cc(C)cc(C2(C(=O)O)CCC2)c1, which melting point is on record?
**A.** Its melting point is 132 to 134 °C.

**Q.** For Nc1ncc(-c2ccccc2F)s1, which melting point is on record?
**A.** The melting point was 149 to 151 °C.

**Q.** Which melting point does the source give for Cc1nc(S)sc1CC(=O)O here?
**A.** Its melting point is 205 to 207 °C.

**Q.** For Cc1c(C(=O)O)cnn1-c1cccc(Br)c1, which melting point is on record?
**A.** The melting point was 169 to 171 °C.

**Q.** For CCCCC(NC(=O)C(C)NC(C)=O)C(=O)O (configuration not stated), which melting point is on record?
**A.** Its melting point is 143 to 145 °C.

**Q.** With c1ccc(C2NCCn3cccc32)cc1 (configuration not stated) as the compound, how does the melting point read?
**A.** The melting point was 72 to 74 °C.

**Q.** For Cc1nc(C2(NC(=O)CCl)CCCCC2)no1, which melting point is on record?
**A.** The melting point was 93 to 95 °C.

**Q.** For Sc1nnnn1-c1ccc(Cl)cc1, which melting point is on record?
**A.** Its melting point is 162 to 164 °C.

**Q.** Which melting point does the source give for O=C(O)c1cc(OCC(F)(F)F)c2ccccc2n1 here?
**A.** Its melting point is 206 to 208 °C.

**Q.** Which melting point does the source give for O=C1NC2(CCCCC2)NC2=C1CCCC2 here?
**A.** Its melting point is 193 to 195 °C.

**Q.** Which melting point does the source give for COC(=O)c1cc2ccccc2cc1N here?
**A.** Its melting point is 99 to 101 °C.

**Q.** Which melting point does the source give for CCOC(=O)c1cc(Cl)cc(Br)c1N here?
**A.** The melting point was 57 to 59 °C.

**Q.** Which melting point does the source give for NNC(=O)Cc1cc[nH]n1 here?
**A.** The melting point was 180 to 182 °C.

**Q.** For COc1ccc(-c2cc(C(=O)O)sc2C)cc1, which melting point is on record?
**A.** The melting point was 186 to 188 °C.

**Q.** For O=[N+]([O-])c1ccc2nc(Br)sc2c1, which melting point is on record?
**A.** The melting point was 201 to 203 °C.

**Q.** With Cc1ccnc(O)c1C(=O)O as the compound, how does the melting point read?
**A.** The melting point was 229 to 231 °C.

**Q.** Which melting point does the source give for CCc1nc(C(=O)O)co1 here?
**A.** The melting point was 101 to 103 °C.

**Q.** For O=C(O)C1CCCN(S(=O)(=O)c2ccc(F)cc2)C1 (configuration not stated), which melting point is on record?
**A.** The melting point was 156 to 160 °C.

**Q.** For c1ccc(-c2csc(N3CCOCC3)n2)cc1, which melting point is on record?
**A.** The melting point was 75 to 77 °C.

**Q.** For O=C(O)c1cccc(COc2cccc(F)c2)c1, which melting point is on record?
**A.** The melting point was 108 to 110 °C.

**Q.** With Nc1cc(F)c(OC2CCCCC2)cc1C(=O)O as the compound, how does the melting point read?
**A.** The melting point was 159 to 161 °C.

**Q.** With O=C(O)c1cncn1-c1ccccc1 as the compound, how does the melting point read?
**A.** Its melting point is 208 to 215 °C.

**Q.** For O=Cc1cc(O)c(O)c(Br)c1, which melting point is on record?
**A.** Its melting point is 219 to 221 °C.

**Q.** Which melting point does the source give for NCC(O)C1CCCCC1 (configuration not stated) here?
**A.** Its melting point is 85 to 87 °C.

**Q.** With NC(=O)CCC(C(=O)O)N1C(=O)c2ccccc2C1=O (configuration not stated) as the compound, how does the melting point read?
**A.** The melting point was 161 to 163 °C.

**Q.** For CC(C)(CC(=O)c1ccc(Cl)cc1)C(=O)O, which melting point is on record?
**A.** The melting point was 147 to 149 °C.

**Q.** Which melting point does the source give for COc1ccccc1-c1nc(C(=O)O)cs1 here?
**A.** The melting point was 184 to 186 °C.

**Q.** With Fc1cccc(-c2nnc(CCl)o2)c1 as the compound, how does the melting point read?
**A.** The melting point was 65 to 67 °C.

**Q.** With O=C(O)CCc1ccc2c(c1)OCCCO2 as the compound, how does the melting point read?
**A.** The melting point was 81 to 83 °C.

**Q.** For Cc1cc(OC(C)C(=O)O)ccc1Cl (configuration not stated), which melting point is on record?
**A.** Its melting point is 87 to 89 °C.

**Q.** With Clc1ccc(-c2nc3ccccc3[nH]2)cn1 as the compound, how does the melting point read?
**A.** Its melting point is 198 to 200 °C.

**Q.** For Cc1cc(C)nc(SCC(=O)O)n1, which melting point is on record?
**A.** The melting point was 130 to 132 °C.

**Q.** Which melting point does the source give for Cc1nccc(CN)n1 here?
**A.** Its melting point is 8 to 10 °C.

**Q.** With O=C(O)CCNC(=O)C1CCC1 as the compound, how does the melting point read?
**A.** The melting point was 105 to 107 °C.

**Q.** Which melting point does the source give for CC(C)NC(=O)Nc1ccccc1[N+](=O)[O-] here?
**A.** Its melting point is 169 to 171 °C.

**Q.** For O=C(O)CCS(=O)(=O)Cc1cccc(Br)c1, which melting point is on record?
**A.** Its melting point is 156 to 158 °C.

**Q.** Which melting point does the source give for CN(C)Cc1ccc(C(=O)O)cc1 here?
**A.** Its melting point is 239 to 241 °C.

**Q.** For Cc1nn(-c2ccccn2)c2nc(C3CC3)cc(C(=O)O)c12, which melting point is on record?
**A.** The melting point was 237 to 239 °C.

**Q.** With O=C(O)C=Cc1cc(Cl)ccc1OCc1ccccc1Br as the compound, how does the melting point read?
**A.** Its melting point is 207 to 209 °C.

**Q.** Which melting point does the source give for NC(=O)Nc1ccc(Br)cc1C(=O)O here?
**A.** The melting point was 171 to 173 °C.

**Q.** With N#CCN1CCC(=O)CC1 as the compound, how does the melting point read?
**A.** The melting point was 91 to 93 °C.

**Q.** With Oc1ccnc(C2CC2)n1 as the compound, how does the melting point read?
**A.** The melting point was 152 to 154 °C.

**Q.** Which melting point does the source give for O=C1CC(Cc2ccc(F)cc2)C(=O)N1 (configuration not stated) here?
**A.** The melting point was 107 to 109 °C.

**Q.** For Cc1ccc(I)c(C(=O)O)c1, which melting point is on record?
**A.** Its melting point is 119 to 121 °C.

**Q.** With NC(=O)c1ccc(Br)c(F)c1 as the compound, how does the melting point read?
**A.** Its melting point is 167 to 169 °C.

**Q.** With Cc1ccsc1-c1nnc(N)o1 as the compound, how does the melting point read?
**A.** Its melting point is 147 to 149 °C.

**Q.** Which melting point does the source give for N#Cc1ccc(Br)cc1C(F)(F)F here?
**A.** Its melting point is 35 to 37 °C.

**Q.** For CCn1cnnc1Nc1ccccc1, which melting point is on record?
**A.** Its melting point is 125 to 127 °C.

**Q.** Which melting point does the source give for Clc1cncc(-n2cncn2)n1 here?
**A.** The melting point was 109 to 111 °C.

**Q.** For N#CC1(N2CCCC2)CCNCC1, which melting point is on record?
**A.** Its melting point is 61 to 63 °C.

**Q.** Which melting point does the source give for Cc1ccc(CNCc2ccc(C)n2C)n1C here?
**A.** Its melting point is 61 to 63 °C.

**Q.** Which melting point does the source give for O=C(O)c1nn(-c2cccc(F)c2)ccc1=O here?
**A.** Its melting point is 219 to 221 °C.

**Q.** Which melting point does the source give for CCOC(=O)Nc1ccc(N)cc1C#N here?
**A.** Its melting point is 166 to 168 °C.

**Q.** Which melting point does the source give for CC(C)(CCC(=O)O)NC(=O)OCC1c2ccccc2-c2ccccc21 here?
**A.** Its melting point is 119 to 121 °C.

**Q.** For NC(=O)N1CCC(O)CC1, which melting point is on record?
**A.** Its melting point is 147 to 149 °C.

**Q.** For CC(=O)c1ccc(OCc2ccccc2C)cc1, which melting point is on record?
**A.** Its melting point is 98 to 100 °C.

**Q.** With C#CCn1ccc2ccccc21 as the compound, how does the melting point read?
**A.** Its melting point is 43 to 45 °C.

**Q.** For Clc1ccnc2cc(Br)cnc12, which melting point is on record?
**A.** Its melting point is 182 to 184 °C.

**Q.** For O=C(O)c1ccc(-n2cncn2)nc1, which melting point is on record?
**A.** Its melting point is 341 to 343 °C.

**Q.** With CCC(=O)c1ccc(OCC(=O)O)cc1 as the compound, how does the melting point read?
**A.** The melting point was 131 to 133 °C.

**Q.** Which melting point does the source give for CC(C)(C)OC(=O)N1CCN(C(N)=S)CC1 here?
**A.** The melting point was 168 to 170 °C.

**Q.** Which melting point does the source give for CC(C)(C)OC(=O)N(CC(=O)O)C1CC1 here?
**A.** The melting point was 90 to 92 °C.

**Q.** With O=C(O)c1cc(-c2ccccc2)ccc1Cl as the compound, how does the melting point read?
**A.** Its melting point is 199 to 201 °C.

**Q.** Which melting point does the source give for OCC1(NCCc2ccccc2)CCCC1 here?
**A.** Its melting point is 86 to 88 °C.

**Q.** Which melting point does the source give for CC(=CC(=O)O)C(C)(C)C here?
**A.** Its melting point is 83 to 85 °C.

**Q.** With COC(=O)c1c[nH]cc1-c1ccc([N+](=O)[O-])cc1 as the compound, how does the melting point read?
**A.** Its melting point is 244 to 246 °C.

**Q.** With O=C(O)Cc1ccc(-n2cccc2)cc1 as the compound, how does the melting point read?
**A.** Its melting point is 171 to 173 °C.

**Q.** With O=C(O)c1ccc2c(c1)C(=O)N(c1ccc(F)cc1)C2=O as the compound, how does the melting point read?
**A.** The melting point was 295 to 297 °C.
